Our source for the AC50 values is ChEMBL document CHEMBL5291721, “A preclinical secondary pharmacology resource illuminates target-adverse drug reaction associations of marketed drugs” (Nat Commun, 2023).

What is called AC50 is the midpoint of the concentration-response curve, whichever way the signal moves. A higher AC50 goes with weaker potency.

The target of experiment [1] is T1, D(1A) dopamine receptor (Homo sapiens, UniProt P21728). The class given is functional, cell-based.
The target of experiment [2] is T2, Peroxisome proliferator-activated receptor alpha (Homo sapiens, UniProt Q07869).
T2 sequence (Q07869 whole entry): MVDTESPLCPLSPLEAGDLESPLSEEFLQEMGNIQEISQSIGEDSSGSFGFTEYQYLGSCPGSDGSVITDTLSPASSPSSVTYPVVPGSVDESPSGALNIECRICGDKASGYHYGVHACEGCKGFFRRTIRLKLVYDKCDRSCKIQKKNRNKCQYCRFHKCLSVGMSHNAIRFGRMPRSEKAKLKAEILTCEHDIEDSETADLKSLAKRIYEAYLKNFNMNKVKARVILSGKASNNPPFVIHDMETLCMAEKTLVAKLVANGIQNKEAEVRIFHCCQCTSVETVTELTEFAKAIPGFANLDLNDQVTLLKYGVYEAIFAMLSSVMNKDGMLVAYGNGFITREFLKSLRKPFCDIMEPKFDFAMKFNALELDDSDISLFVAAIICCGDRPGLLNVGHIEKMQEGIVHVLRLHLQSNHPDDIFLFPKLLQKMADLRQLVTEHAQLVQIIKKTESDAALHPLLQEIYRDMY
The class given is functional.

Experiment [3] addresses T3, Muscarinic acetylcholine receptor M2 (Homo sapiens, UniProt P08172).
T3 sequence (P08172 whole entry): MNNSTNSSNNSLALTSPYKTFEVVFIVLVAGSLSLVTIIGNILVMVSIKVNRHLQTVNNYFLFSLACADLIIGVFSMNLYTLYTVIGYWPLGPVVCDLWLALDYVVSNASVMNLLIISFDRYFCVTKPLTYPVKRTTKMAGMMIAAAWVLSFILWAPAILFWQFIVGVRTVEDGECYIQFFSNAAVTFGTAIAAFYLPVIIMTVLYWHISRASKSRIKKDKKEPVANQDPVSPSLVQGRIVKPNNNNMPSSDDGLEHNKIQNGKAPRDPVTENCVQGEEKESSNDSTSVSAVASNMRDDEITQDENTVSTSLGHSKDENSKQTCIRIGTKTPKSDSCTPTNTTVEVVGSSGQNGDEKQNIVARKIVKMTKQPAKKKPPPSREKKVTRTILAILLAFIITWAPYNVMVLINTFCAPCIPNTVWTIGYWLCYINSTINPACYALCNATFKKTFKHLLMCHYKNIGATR

Experiment [4] has as its target T1, D(1A) dopamine receptor.
For another experiment, the target named is D(3) dopamine receptor (Homo sapiens, UniProt P35462).
Sequence of D(3) dopamine receptor (P35462 whole entry): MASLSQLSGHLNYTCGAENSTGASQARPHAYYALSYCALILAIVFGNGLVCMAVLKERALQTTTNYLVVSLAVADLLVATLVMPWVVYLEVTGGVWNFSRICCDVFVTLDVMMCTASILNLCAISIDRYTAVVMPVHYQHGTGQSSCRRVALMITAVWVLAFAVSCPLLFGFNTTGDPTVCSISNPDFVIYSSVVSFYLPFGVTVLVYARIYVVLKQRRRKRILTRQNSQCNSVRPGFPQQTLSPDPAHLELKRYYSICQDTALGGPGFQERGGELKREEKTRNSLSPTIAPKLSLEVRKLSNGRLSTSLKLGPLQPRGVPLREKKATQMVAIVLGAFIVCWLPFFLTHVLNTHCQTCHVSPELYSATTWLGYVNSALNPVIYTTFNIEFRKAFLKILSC
A further experiment addresses T4, Estrogen receptor (Homo sapiens, UniProt P03372).
T4 sequence (P03372 whole entry): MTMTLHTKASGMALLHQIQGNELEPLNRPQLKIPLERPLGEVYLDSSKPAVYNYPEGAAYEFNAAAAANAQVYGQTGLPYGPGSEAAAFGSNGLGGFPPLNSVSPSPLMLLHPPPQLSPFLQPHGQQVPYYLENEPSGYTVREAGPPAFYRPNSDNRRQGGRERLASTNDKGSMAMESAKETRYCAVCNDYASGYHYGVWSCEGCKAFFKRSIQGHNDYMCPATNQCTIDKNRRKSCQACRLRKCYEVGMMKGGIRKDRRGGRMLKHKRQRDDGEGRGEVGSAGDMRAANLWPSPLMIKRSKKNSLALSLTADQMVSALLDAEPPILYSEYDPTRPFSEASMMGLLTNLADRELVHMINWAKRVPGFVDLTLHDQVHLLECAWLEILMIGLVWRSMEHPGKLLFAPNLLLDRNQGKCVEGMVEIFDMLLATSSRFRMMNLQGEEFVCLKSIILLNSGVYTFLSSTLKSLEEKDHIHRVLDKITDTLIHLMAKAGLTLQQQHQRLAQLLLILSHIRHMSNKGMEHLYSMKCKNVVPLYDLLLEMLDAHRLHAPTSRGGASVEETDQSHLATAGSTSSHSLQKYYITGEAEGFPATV

A further experiment addresses Prothrombin (Homo sapiens, UniProt P00734). Format: functional.
The next experiment deals with Mu-type opioid receptor (Homo sapiens, UniProt P35372).
Sequence of Mu-type opioid receptor (P35372 whole entry): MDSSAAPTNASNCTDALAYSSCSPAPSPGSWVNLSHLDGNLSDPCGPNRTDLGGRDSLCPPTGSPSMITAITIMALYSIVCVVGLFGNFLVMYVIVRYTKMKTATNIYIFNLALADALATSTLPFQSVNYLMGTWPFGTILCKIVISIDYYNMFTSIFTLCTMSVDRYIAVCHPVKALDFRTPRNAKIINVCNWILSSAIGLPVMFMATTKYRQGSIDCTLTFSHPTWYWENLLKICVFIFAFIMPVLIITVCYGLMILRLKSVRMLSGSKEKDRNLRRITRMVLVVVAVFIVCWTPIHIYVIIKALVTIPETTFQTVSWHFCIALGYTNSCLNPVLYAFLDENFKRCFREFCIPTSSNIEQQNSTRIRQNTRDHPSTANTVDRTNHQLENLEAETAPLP
Experiment [5] deals with cGMP-inhibited 3',5'-cyclic phosphodiesterase 3A (Homo sapiens, UniProt Q14432). The class given is functional.
Sequence of cGMP-inhibited 3',5'-cyclic phosphodiesterase 3A (Q14432 whole entry): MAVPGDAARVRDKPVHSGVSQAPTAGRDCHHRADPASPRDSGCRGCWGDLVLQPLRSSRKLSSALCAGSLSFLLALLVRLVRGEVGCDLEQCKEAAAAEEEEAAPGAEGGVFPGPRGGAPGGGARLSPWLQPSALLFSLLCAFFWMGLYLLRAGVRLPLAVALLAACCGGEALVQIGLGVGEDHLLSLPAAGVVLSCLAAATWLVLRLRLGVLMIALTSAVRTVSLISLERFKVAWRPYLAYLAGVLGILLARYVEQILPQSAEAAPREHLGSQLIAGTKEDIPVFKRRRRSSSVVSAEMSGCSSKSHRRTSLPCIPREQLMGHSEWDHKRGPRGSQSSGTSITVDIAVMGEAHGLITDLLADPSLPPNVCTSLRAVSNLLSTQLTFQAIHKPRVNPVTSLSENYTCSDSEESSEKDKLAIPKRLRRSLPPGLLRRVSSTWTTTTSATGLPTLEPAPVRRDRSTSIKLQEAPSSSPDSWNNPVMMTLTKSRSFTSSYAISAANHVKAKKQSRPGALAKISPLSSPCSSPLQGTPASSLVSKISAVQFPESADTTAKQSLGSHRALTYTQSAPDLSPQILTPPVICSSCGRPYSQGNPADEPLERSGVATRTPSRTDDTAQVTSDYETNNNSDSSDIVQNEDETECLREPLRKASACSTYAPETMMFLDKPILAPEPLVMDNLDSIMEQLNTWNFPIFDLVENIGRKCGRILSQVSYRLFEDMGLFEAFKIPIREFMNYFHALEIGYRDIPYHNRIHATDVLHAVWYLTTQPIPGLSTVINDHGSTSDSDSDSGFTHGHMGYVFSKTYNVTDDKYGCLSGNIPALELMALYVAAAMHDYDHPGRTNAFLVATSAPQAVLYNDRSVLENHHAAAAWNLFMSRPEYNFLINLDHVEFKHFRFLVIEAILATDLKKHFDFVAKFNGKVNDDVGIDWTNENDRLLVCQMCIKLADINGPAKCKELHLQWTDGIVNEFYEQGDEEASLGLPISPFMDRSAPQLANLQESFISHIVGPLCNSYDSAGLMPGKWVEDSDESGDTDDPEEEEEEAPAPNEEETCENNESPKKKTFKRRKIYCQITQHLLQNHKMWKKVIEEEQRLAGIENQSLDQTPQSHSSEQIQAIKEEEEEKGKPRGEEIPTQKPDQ
Experiment [6] concerns the target 3',5'-cyclic-AMP phosphodiesterase 4A (Homo sapiens, UniProt P27815). Format: functional.
For experiment [7], the target named is Prostaglandin G/H synthase 1 (Homo sapiens, UniProt P23219). The class given is functional.
Sequence of Prostaglandin G/H synthase 1 (P23219 whole entry): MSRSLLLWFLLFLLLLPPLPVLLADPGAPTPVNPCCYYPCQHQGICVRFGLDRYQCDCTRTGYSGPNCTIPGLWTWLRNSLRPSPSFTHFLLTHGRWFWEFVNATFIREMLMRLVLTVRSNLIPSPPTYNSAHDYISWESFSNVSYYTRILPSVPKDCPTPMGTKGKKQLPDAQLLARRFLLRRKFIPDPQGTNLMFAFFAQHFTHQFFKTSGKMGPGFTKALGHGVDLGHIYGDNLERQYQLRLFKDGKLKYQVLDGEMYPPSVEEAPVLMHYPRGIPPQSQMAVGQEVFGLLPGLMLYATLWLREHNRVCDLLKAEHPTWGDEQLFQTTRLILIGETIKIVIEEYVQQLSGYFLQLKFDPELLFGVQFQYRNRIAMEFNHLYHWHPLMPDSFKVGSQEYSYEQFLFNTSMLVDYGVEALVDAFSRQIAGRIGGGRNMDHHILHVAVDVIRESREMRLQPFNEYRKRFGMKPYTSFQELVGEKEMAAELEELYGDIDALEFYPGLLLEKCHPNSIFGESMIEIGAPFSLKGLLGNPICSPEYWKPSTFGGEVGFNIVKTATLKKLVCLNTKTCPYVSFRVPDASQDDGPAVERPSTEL
Experiment [8] has as its target Sodium-dependent noradrenaline transporter (Homo sapiens, UniProt P23975).
Experiment [9] has as its target Sodium-dependent dopamine transporter (Homo sapiens, UniProt Q01959).
The target of another experiment is T5, Thromboxane A2 receptor (Homo sapiens, UniProt P21731).
T5 sequence (P21731 whole entry): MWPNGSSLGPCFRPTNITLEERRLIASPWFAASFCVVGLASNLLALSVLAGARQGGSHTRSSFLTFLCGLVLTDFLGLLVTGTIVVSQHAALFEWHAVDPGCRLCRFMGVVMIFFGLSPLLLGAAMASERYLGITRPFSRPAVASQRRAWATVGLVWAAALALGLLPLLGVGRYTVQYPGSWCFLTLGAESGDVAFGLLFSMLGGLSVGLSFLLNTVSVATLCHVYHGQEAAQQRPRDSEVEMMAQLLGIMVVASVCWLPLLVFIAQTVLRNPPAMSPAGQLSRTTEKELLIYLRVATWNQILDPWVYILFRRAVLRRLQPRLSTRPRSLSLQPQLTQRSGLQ
The class given is functional, cell-based.
Further: assay procedure not described here.

T1 sequence (P21728 whole entry): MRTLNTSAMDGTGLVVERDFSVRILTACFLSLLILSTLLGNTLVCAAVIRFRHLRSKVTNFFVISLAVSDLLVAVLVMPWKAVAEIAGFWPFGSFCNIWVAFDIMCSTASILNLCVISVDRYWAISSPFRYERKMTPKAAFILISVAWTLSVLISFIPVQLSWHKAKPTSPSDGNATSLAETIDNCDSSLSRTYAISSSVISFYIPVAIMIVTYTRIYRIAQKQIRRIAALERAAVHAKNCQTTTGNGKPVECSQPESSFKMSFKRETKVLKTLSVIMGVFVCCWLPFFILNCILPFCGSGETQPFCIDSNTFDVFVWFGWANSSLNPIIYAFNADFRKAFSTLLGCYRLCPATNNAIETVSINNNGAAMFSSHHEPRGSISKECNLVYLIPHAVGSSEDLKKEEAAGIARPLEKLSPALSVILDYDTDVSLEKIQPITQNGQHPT
Sequence of Sodium-dependent noradrenaline transporter (P23975 whole entry): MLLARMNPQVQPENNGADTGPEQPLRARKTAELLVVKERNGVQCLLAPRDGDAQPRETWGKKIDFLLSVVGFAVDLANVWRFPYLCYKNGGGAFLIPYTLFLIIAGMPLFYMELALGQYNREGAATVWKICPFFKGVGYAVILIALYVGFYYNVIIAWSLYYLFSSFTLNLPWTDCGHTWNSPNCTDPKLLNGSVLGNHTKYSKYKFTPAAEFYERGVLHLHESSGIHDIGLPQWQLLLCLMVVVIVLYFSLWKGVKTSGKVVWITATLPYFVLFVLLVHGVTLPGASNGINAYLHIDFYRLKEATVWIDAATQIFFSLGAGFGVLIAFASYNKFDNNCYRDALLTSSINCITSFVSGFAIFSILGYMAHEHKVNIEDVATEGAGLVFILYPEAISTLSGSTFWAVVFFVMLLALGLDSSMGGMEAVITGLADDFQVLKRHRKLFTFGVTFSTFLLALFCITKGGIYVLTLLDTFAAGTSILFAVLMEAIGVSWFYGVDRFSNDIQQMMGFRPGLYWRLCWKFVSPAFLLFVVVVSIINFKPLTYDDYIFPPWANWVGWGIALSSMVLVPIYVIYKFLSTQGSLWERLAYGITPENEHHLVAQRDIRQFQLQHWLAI
Sequence of 3',5'-cyclic-AMP phosphodiesterase 4A (P27815 whole entry): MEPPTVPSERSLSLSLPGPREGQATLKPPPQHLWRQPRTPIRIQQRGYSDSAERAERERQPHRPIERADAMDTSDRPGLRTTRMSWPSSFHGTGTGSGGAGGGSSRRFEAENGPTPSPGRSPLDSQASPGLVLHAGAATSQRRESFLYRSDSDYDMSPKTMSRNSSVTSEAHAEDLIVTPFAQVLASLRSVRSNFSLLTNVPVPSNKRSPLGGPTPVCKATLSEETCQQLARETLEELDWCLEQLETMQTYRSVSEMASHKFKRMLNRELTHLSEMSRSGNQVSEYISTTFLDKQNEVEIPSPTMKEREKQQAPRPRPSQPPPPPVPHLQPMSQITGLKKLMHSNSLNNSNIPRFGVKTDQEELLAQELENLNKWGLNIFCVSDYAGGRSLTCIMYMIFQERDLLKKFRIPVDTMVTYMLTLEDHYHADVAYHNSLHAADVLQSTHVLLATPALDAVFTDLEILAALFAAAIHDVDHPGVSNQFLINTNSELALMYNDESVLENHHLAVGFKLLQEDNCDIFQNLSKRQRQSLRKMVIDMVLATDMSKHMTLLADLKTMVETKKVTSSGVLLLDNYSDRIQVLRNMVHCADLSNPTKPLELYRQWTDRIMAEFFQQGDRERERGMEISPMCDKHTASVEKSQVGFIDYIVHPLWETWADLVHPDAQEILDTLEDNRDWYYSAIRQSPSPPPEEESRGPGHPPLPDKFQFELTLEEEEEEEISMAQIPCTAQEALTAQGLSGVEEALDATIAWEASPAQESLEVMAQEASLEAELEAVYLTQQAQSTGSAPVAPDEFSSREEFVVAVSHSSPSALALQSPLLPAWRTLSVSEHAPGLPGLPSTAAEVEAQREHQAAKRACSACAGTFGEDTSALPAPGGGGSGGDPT

For the compound `CCCCCCC(C)(C)c1cc(O)c2c(c1)OC(C)(C)C1CCC(=O)CC21` (stereo not drawn) [NABILONE], at D(1A) dopamine receptor [1], the AC50 is > 30 µM.

`CCN1CCC[C@H]1CNC(=O)c1cc(S(N)(=O)=O)ccc1OC` [LEVOSULPIRIDE]: the AC50 at D(1A) dopamine receptor [1] is > 30 µM.

On to `CC(C)c1c(C(=O)Nc2ccccc2)c(-c2ccccc2)c(-c2ccc(F)cc2)n1CC[C@@H](O)C[C@@H](O)CC(=O)O` [ATORVASTATIN], for which the AC50 in [2] was > 30 µM.

On to `CC(C)(Oc1ccc(C2CC2(Cl)Cl)cc1)C(=O)O` (stereo not drawn) [CIPROFIBRATE], for which the AC50 in [2] was > 30 µM.

With `Nc1nc2ccc(OC(F)(F)F)cc2s1` [RILUZOLE], the concentration at half-maximal activity (AC50) in [3] is > 30 µM; at D(1A) dopamine receptor [4], > 30 µM; at D(3) dopamine receptor it was > 30 µM; on Estrogen receptor, > 30 µM; at Prothrombin it was > 30000 nM; at Mu-type opioid receptor it was > 30 µM. Further, the AC50 was > 30 µM in experiment [5]; > 30 µM in experiment [6]; > 30 µM in experiment [7]; 2590 nM in experiment [8]; 18.7 µM in [9]; > 30 µM on Thromboxane A2 receptor.

For BIVALIRUDIN, the AC50 in experiment [3] was > 30 µM; on D(1A) dopamine receptor [4], > 30 µM; at D(3) dopamine receptor, > 30 µM; at Estrogen receptor it was > 30 µM; at Prothrombin, 9.2 nM; at Mu-type opioid receptor, > 30 µM. In addition, the AC50 is > 30 µM in [5]; > 30 µM in experiment [6]; > 30 µM in experiment [7]; > 30000 nM in experiment [8]; > 30 µM in experiment [9]; > 30 µM at Thromboxane A2 receptor.
